Test results taken from patent US10561379B2, “In vivo positron emission tomography-based perfusion/blood pool imaging using labeled erythrocytes” (H. LEE MOFFITT CANCER CENTER AND RESEARCH INSTITUTE, INC., priority 2016, dated 2020).

Tests used:
[1] = test system: splenectomized NSG immunodeficient mouse; test: microPET imaging of mice injected with FDG-labeled human erythrocytes or free FDG (Example 2); format: in vivo; settings: tail vein catheter injection (≈47 microCuries FDG-labeled erythrocytes or ≈32 microCuries free FDG), 20-minute PET
Procedure: Approximately 47 microCuries of FDG-labeled human erythrocytes were injected via tail vein catheter into a splenectomized NSG immunodeficient mouse. The mouse was placed into a Siemens INVEON microPET scanner, and 18-F PET imaging of the mouse was performed over a 20-minute time period.
Approximately 32 microCuries of free FDG were injected via tail vein catheter into a second splenectomized NSG immunodeficient mouse. The mouse was placed into the Siemens INVEON microPET scanner, and 18-F PET imaging of the mouse was performed over a 20-minute time period.

human RBCs = test: FDG uptake by human RBCs (% total FDG incorporation, dose calibrator counting); format: cell-based; settings: for mean % total FDG incorporation: 30' 37° C. incubation with 37-74 MBq FDG (text b108)
Procedure: […] 30′, centrifuged 1000 g 10′, and washed twice in 4× volume 1×EDTA solution. […] Sample/wash aliquots were counted in an Atomlab 600 dose calibrator (Biodex) to measure % retained FDG.
Human red blood cell (RBC) preparation and FDG-RBC labeling: Packed human red blood cells collected in standard anticoagulant citrate dextrose (ACD) solution (either ≤24 hours post phlebotomy or ˜5 day post phlebotomy) were obtained from Zen-Bio, Inc. 370-740 Megabecquerel (MBq) (1 ml) USP grade 2-deoxy-2-(^18F)fluoro-D-glucose (FDG) were obtained from Cardinal Health. Vendor supplied human RBCs are centrifuged 1000 g 10′, and the remaining anticoagulant and buffy coat residual are gently aspirated. RBCs are then gently washed in a 4× volume of filter sterilized “1×EDTA” solution (140 mM NaCl, 4 mM KCl, 2.5 mM Ethylenediaminetetraacetic acid dipotassium salt dihydrate (K2EDTA dihydrate)), centrifuged at 1000 g 10′, and the wash is manually aspirated. […] Samples are then centrifuged at 1000 g 10′ and the supernatant is carefully aspirated. RBCs are then washed and centrifuged twice with 4× volumes of 1×EDTA solution. For experiments characterizing residual unincorporated FDG, a 3rd wash/centrifugation step was performed. […] Aliquots from all samples and washes are counted with the Atomlab™ 600 dose calibrator (Biodex Medical Systems, Inc.).

[2] = test system: splenectomized NSG immunodeficient mice; test: ECG-gated whole body microPET/CT imaging of NSG immunodeficient mice; format: in vivo, mouse; settings: for time activity curve (TAC) of the heart, pattern: observation period 20-30 minutes; for anatomic distribution of FDG in the heart (fused microPET/CT images) / whole body distribution of FDG activity on microPET image / urinary excretion of FDG (kidneys, bladder) on microPET image: tail vein injection; for whole body distribution of FDG activity on microPET image: injected activity differs per figure
Procedure: 4-6 wk old splenectomized NSG immunodeficient mice (Jax Lab) were fasted O/N and phlebotomized (200-250 μl), prior to microPET imaging with an INVEON PET/CT preclinical scanner (Siemens). […]
PET images were analyzed with INVEON workstation software (Siemens). Patlak compartment plot option was chosen. For 3D PET and 4D PET data sets, VOIs were selected manually based on corresponding CT images: heart, leg muscle, liver, kidney and brain.
ECG-gated whole body microPET imaging of NSG immunodeficient mice: 4-6 week old splenectomized NOD scid gamma (NSG™) immunodeficient mice were obtained from The Jackson Laboratory. Mice were placed in specialized housing for immunodeficient mouse in the Moffitt Cancer Center (MCC) vivarium. Approval for all animal experimentation was first obtained from the University of South Florida (USF) Institutional Animal Care and Use Committee (IACUC). All animal experimentation was performed in accordance to federal regulations and USF IACUC principles and procedures. Animal imaging was performed in the MCC Small Animal Imaging Laboratory with an INVEON PET/CT (Siemens Medical Inc., Knoxville, Tenn.) preclinical scanner. Mice are first fasted the night before microPET imaging and undergo phlebotomy of ≈200-250 μl whole blood via retro-orbital venous plexus puncture immediately prior to microPET imaging. Blood glucose from the phlebotomized blood is measured. A tail vein microcatheter is placed in each mouse under inhalational isoflurane anesthesia. […] The PET part of the system has 64 detector blocks with total field of view (FOV) 12.7 cm and a spatial resolution of 1.4 mm. […] The ECG signal in each mouse was detected with three flat electrodes placed in two front and one rear limbs of each animal (ground lead on a rear leg). […] The threshold for TTL cardiac gating signals was set in a rising mode of R-wave peak. The PET list-mode data were reconstructed using 3D-OSEM iterative algorithm with four iterations and eight subsets, with a final image volume of 256×256×256 voxels. Voxel effective dimensions were 1.4×1.4×1.4 mm. For each animal there are three data sets: standard 3-dimensional (3D) PET reconstruction, resulting in a motion-time average 3D PET image; dynamic 3D PET reconstruction with 30 frames; and the phase-based 4-dimensional (regular 3-dimensional plus time, 4D) PET cardiac reconstruction, with four cardiac gates binning. In all cases, CT attenuation correction was applied to the PET images.
PET images of the mice were analyzed using INVEON Workstation Software (Siemens Medical Inc., Knoxville, Tenn.). Vendor software-supplied Patlak compartment plot option was selected (Patlak et al., 1983). For 3D PET and 4D PET data sets multiple volumes of interest (VOI) were selected manually based on corresponding CT images including: heart, leg muscle, liver, kidney and brain. […] Dynamic activity curves were plotted for VOIs using dynamic 3D PET data set for each animal. The 4D PET data were used for defining cardiac function. First the heart was segmented on CT images based on anatomical features, after that segmented volume (cardiac PET VOI) was transferred into co-registered PET images.

human red blood cells = test: FDG labeling of human red blood cells, 5 minute incubation at room temperature (Example 1); format: cell-based
Procedure: 150 microCuries of FDG in a 100 microliter volume was incubated with 250 microliters of human red blood cells to a final solution volume of 500 microliters (NaCl/KCl/EDTA solution contains 140 mM NaCl, 4 mM KCl, 2.5 mM K2EDTA dihydrate). FDG incubation duration=5 minutes at room temperature. Triplicate samples were used. Samples were centrifuged 1000 g 10 minutes after 5 minute FDG incubation, and RBC pellet was washed twice with 1.0 ml of NaCl/KCl/EDTA solution. A sample of the collected supernatant and a pellet sample was counted in a gamma counter with 18-F gating. 3% incorporation rate=4.5 microCurie of incorporated FDG/250 microliters of human red blood cell=18 microCurie of FDG/1 ml human red blood cells. Thus, 60 milliliters of whole blood from a patient should yield approximately 432-486 microCuries of FDG labeled red blood cells. (Assumes average 40% female hematocrit and 45% male hematocrit).

Which results are given for 2-deoxy-2-(^18F)fluoro-D-glucose [FDG]?
tracer distribution on PET image [1]: majority of free FDG uptake is seen in the heart muscle, bladder, and kidneys; FDG incorporated in packed RBCs on clinical translation of the labeling/wash protocol (human RBCs; 10 ml's packed RBCs, initial 740 MBq FDG, inventor's prediction): up to 370 MBq; mean % total FDG incorporation (human RBCs; 250 μl 1 day old RBCs): 85.3%±1.8%; % total FDG incorporation (human RBCs; 250 μl 1 day old human RBCs, 37° C., 30' (text b110)): 73.3%±3.6%; % total FDG incorporation (human RBCs; 250 μl 1 day old human RBCs, 37° C., 30 minutes (time course)): 78.3%±0.9; % total FDG incorporation (human RBCs; 250 μl 1 day old human RBCs, 37° C., 1 hour (time course)): 85.0%±0.0%; % total FDG incorporation (human RBCs; 250 μl 1 day old human RBCs, 37° C., 2 hours (FIG. 3 legend)): 73.3%±3.6%; % total FDG incorporation (human RBCs; 250 μl 1 day old human RBCs, 37° C., 2 hours (time course)): 85.3%±0.3%; % total FDG incorporation (human RBCs; 250 μl 1 day old human RBCs, 2 hours (FIG. 4 legend)): 85.3%±1.8%; % total FDG incorporation (human RBCs; 250 μl 1 day old human RBCs, room temperature (~25° C.), 2 hours): 10.3%±1.1%; % total FDG incorporation (human RBCs; 250 μl 5 day old human RBCs, 2 hours (FIG. 4 legend)): 3.3%±0.2%; mean % total FDG incorporation (human RBCs; 5 day old RBCs): 3.3%±0.2%; internal FDG uptake (in words) (human RBCs; human RBCs collected and used ≈5 days after phlebotomy): negligible rate of internal FDG uptake; time activity curve (TAC) of the heart, pattern [2]: increases steadily over the observation period of 20-30 minutes; time activity curve (TAC) of the heart, pattern ([2]; listed as free FDG): steady increase in FDG activity over time; anatomic distribution of FDG in the heart (fused microPET/CT images) [2]: marked myocardial uptake of FDG in the left ventricle; whole body distribution of FDG activity on microPET image ([2]; listed as free 18F-FDG): normal marked FDG uptake in the myocardium; whole body distribution of FDG activity on microPET image ([2]; listed as free FDG): intense FDG accumulation in the myocardium and brain; anatomic distribution of FDG in the heart (fused microPET/CT images) ([2]; listed as free 18F-FDG): intense physiologic FDG uptake by myocardium of the left ventricle; urinary excretion of FDG (kidneys, bladder) on microPET image ([2]; listed as free 18F-FDG): physiologic FDG excretion into the kidneys and bladder; urinary excretion of FDG (kidneys, bladder) on microPET image ([2]; listed as free FDG): marked urinary excretion in the kidneys and bladder; incorporation rate (human red blood cells; 150 microCuries FDG, 250 microliters human red blood cells, 5 minutes at room temperature): 3%; FDG/1 ml human red blood cells (human red blood cells; 5 minutes at room temperature): 18 microCurie; incorporated FDG/250 microliters of human red blood cell (human red blood cells; 5 minutes at room temperature, 150 microCuries FDG): 4.5 microCurie; FDG labeled red blood cells yielded from 60 milliliters of whole blood from a patient (human red blood cells; extrapolated, assumes 40% female and 45% male hematocrit): 432-486 microCuries
